# Experimental data reported in ChEMBL document CHEMBL1124625, “Flavones. 2. Synthesis and structure-activity relationship of flavodilol and its analogues, a novel class of antihypertensive agents with catecholamine depleting properties” (J Med Chem, 1989).
# Experiments:
# Rattus norvegicus [1] = assay: Systolic blood pressure (SBP) in anesthetized spontaneously hypertensive rats(SHR) at 7.5 hours after administration of 65 mg/kg dose perorally; NS is not statistically significant.
# Rattus norvegicus [2] = assay: Systolic blood pressure (SBP) in anesthetized spontaneously hypertensive rats(SHR) before administration of 65 mg/kg dose perorally; type: functional; conditions: route oral
# Rattus norvegicus [3] = assay: (§1) Systolic blood pressure (SBP) in anesthetized spontaneously hypertensive rats(SHR) before administration of 35 mg/kg dose perorally; type: functional; design: unit not given here; conditions: route oral
# Adrenergic receptor beta [4] = target: T1, Adrenergic receptor beta (Rattus norvegicus, UniProt P18090+P10608+P26255); assay: Inhibition constant obtained from beta adrenergic receptor binding assay; type: protein assay
# Rattus norvegicus [5] = assay: Systolic blood pressure (SBP) in anesthetized spontaneously hypertensive rats(SHR) at 7.5 hours after administration of 35 mg/kg dose perorally; type: functional; conditions: route oral
# Rattus norvegicus [6] = assay: % decrease in systolic blood pressure (SBP) in anesthetized spontaneously hypertensive rats(SHR) after administration of 150 mg/kg dose perorally; conditions: route oral
# Rattus norvegicus [7] = assay: % decrease in adrenal epinephrine in anesthetized spontaneously hypertensive rats(SHR) at 24 hours after administration of 150 mg/kg dose perorally; type: functional; conditions: route oral
# Rattus norvegicus [8] = assay: % decrease in brain norepinephrine in anesthetized spontaneously hypertensive rats(SHR) at 24 hours after administration of 150 mg/kg dose perorally; conditions: route oral
# Rattus norvegicus [9] = assay: % decrease in heart norepinephrine in anesthetized spontaneously hypertensive rats(SHR) at 24 hours after administration of 150 mg/kg dose perorally; type: functional; conditions: route oral
# Rattus norvegicus [10] = assay: Systolic blood pressure (SBP) in anesthetized spontaneously hypertensive rats(SHR) at 7.5 hours after administration of 75 mg/kg dose perorally; NS is not statistically significant
# Rattus norvegicus [11] = assay: % decrease in heart norepinephrine in anesthetized spontaneously hypertensive rats(SHR) at 5 hours after administration of 150 mg/kg dose perorally; type: functional; conditions: route oral
# Rattus norvegicus [12] = assay: % decrease in heart 5-HT in anesthetized spontaneously hypertensive rats(SHR) at 5 hours after administration of 75 mg/kg dose perorally; *value significantly different was control.; type: functional; conditions: route oral
# Rattus norvegicus [13] = assay: % decrease in heart norepinephrine in anesthetized spontaneously hypertensive rats(SHR) at 5 hours after administration of 35 mg/kg dose perorally; type: functional; conditions: route oral
# Rattus norvegicus [14] = assay: % decrease in hypothalamus norepinephrine in anesthetized spontaneously hypertensive rats(SHR) at 5 hours after administration of 150 mg/kg dose perorally; type: functional; conditions: route oral
# Rattus norvegicus [15] = assay: % decrease in heart 5-HT in anesthetized spontaneously hypertensive rats(SHR) at 5 hours after administration of 35 mg/kg dose perorally; type: functional; conditions: route oral
# Rattus norvegicus [16] = assay: % decrease in hypothalamus dopamine in anesthetized spontaneously hypertensive rats(SHR) at 5 hours after administration of 35 mg/kg dose perorally; type: functional; conditions: route oral
# Rattus norvegicus [17] = assay: % decrease in hypothalamus norepinephrine in anesthetized spontaneously hypertensive rats(SHR) at 5 hours after administration of 75 mg/kg dose perorally; type: functional; conditions: route oral
# Rattus norvegicus [18] = assay: % decrease in hypothalamus DA in anesthetized spontaneously hypertensive rats(SHR) at 5 hours after administration of 150 mg/kg dose perorally; conditions: route oral
# Rattus norvegicus [19] = assay: % decrease in hypothalamus dopamine in anesthetized spontaneously hypertensive rats(SHR) at 5 hours after administration of 75 mg/kg dose perorally; type: functional; conditions: route oral
# Rattus norvegicus [20] = assay: % decrease in hypothalamus norepinephrine in anesthetized spontaneously hypertensive rats(SHR) at 5 hours after administration of 35 mg/kg dose perorally; type: functional; conditions: route oral
# Rattus norvegicus [21] = assay: % decrease in heart norepinephrine in anesthetized spontaneously hypertensive rats(SHR) at 5 hours after administration of 75 mg/kg dose perorally; type: functional; conditions: route oral
# Rattus norvegicus [22] = assay: % decrease in heart 5-HT in anesthetized spontaneously hypertensive rats(SHR) at 5 hours after administration of 150 mg/kg dose perorally; type: functional; conditions: route oral
# Rattus norvegicus [23] = assay: % decrease in heart 5-HT in anesthetized spontaneously hypertensive rats(SHR) at 5 hours after administration of 8 mg/kg dose perorally; type: functional; conditions: route oral
# Rattus norvegicus [24] = assay: % decrease in hypothalamus dopamine in anesthetized spontaneously hypertensive rats(SHR) at 5 hours after administration of 4 mg/kg dose perorally; type: functional; conditions: route oral
# Rattus norvegicus [25] = assay: % decrease in heart norepinephrine in anesthetized spontaneously hypertensive rats(SHR) at 5 hours after administration of 8 mg/kg dose perorally; type: functional; conditions: route oral
# Rattus norvegicus [26] = assay: % decrease in systolic blood pressure (SBP) in anesthetized spontaneously hypertensive rats(SHR) after administration of 17.5 mg/kg dose perorally; data statistically significant; conditions: route oral
# Rattus norvegicus [27] = assay: % decrease in heart 5-HT in anesthetized spontaneously hypertensive rats(SHR) at 5 hours after administration of 17.5 mg/kg dose perorally; value significantly different was control; type: functional; conditions: route oral
# Rattus norvegicus [28] = assay: % decrease in systolic blood pressure (SBP) in anesthetized spontaneously hypertensive rats(SHR) after administration of 8 mg/kg dose perorally; conditions: route oral
# Rattus norvegicus [29] = assay: Systolic blood pressure (SBP) in anesthetized spontaneously hypertensive rats(SHR) at 7.5 hours after administration of 75 mg/kg dose perorally; conditions: route oral
# Rattus norvegicus [30] = assay: Systolic blood pressure (SBP) in anesthetized spontaneously hypertensive rats (SHR) before administration of 75 mg/kg dose perorally.; type: functional; design: unit: mmHg; conditions: route oral
# Rattus norvegicus [31] = assay: % decrease in heart 5-HT in anesthetized spontaneously hypertensive rats(SHR) at 5 hours after administration of 75 mg/kg dose perorally; value significantly different was control; type: functional; conditions: route oral
# Rattus norvegicus [32] = assay: Systolic blood pressure (SBP) in anesthetized spontaneously hypertensive rats(SHR) before administration of 17 mg/kg dose, perorally; type: functional; conditions: route oral
# Rattus norvegicus [33] = assay: % decrease in hypothalamus norepinephrine in anesthetized spontaneously hypertensive rats(SHR) at 5 hours after administration of 4 mg/kg dose perorally; type: functional; conditions: route oral
# Adrenergic receptor beta [34] = target: T1, Adrenergic receptor beta
# Description: Inhibition constant from beta adrenergic receptor binding assay
# Rattus norvegicus [35] = assay: % decrease in hypothalamus norepinephrine in anesthetized spontaneously hypertensive rats(SHR) at 5 hours after administration of 8 mg/kg dose perorally; type: functional; conditions: route oral
# Rattus norvegicus [36] = assay: % decrease in hypothalamus DA in anesthetized spontaneously hypertensive rats(SHR) at 5 hours after administration of 35 mg/kg dose perorally; conditions: route oral
# Rattus norvegicus [37] = assay: as §1; type: functional; conditions: route oral
# Rattus norvegicus [38] = assay: % decrease in heart norepinephrine in anesthetized spontaneously hypertensive rats(SHR) at 5 hours after administration of 17.5 mg/kg dose perorally; type: functional; conditions: route oral
# Rattus norvegicus [39] = assay: % decrease in hypothalamus dopamine in anesthetized spontaneously hypertensive rats(SHR) at 5 hours after administration of 8 mg/kg dose perorally; type: functional; conditions: route oral
# Rattus norvegicus [40] = assay: % decrease in heart 5-HT in anesthetized spontaneously hypertensive rats(SHR) at 5 hours after administration of 35 mg/kg dose perorally; value significantly different was control; type: functional; conditions: route oral
# Rattus norvegicus [41] = assay: % decrease in heart norepinephrine in anesthetized spontaneously hypertensive rats(SHR) at 5 hours after administration of 4 mg/kg dose perorally; type: functional; conditions: route oral
# Rattus norvegicus [42] = assay: % decrease in hypothalamus dopamine in anesthetized spontaneously hypertensive rats(SHR) at 5 hours after administration of 17.5 mg/kg dose perorally; type: functional; conditions: route oral
# Rattus norvegicus [43] = assay: % decrease in systolic blood pressure (SBP) in anesthetized spontaneously hypertensive rats(SHR) after administration of 75 mg/kg dose perorally; conditions: route oral
# Rattus norvegicus [44] = assay: % decrease in hypothalamus norepinephrine in anesthetized spontaneously hypertensive rats(SHR) at 5 hours after administration of 17.5 mg/kg dose perorally; type: functional; conditions: route oral
# Rattus norvegicus [45] = assay: % decrease in systolic blood pressure (SBP) in anesthetized spontaneously hypertensive rats(SHR) after administration of 4 mg/kg dose perorally; conditions: route oral
# Rattus norvegicus [46] = assay: Systolic blood pressure (SBP) in anesthetized spontaneously hypertensive rats(SHR) at 7.5 hours after administration of 17 mg/kg dose, perorally; type: functional; conditions: route oral
# Rattus norvegicus [47] = assay: % decrease in heart 5-HT in anesthetized spontaneously hypertensive rats(SHR) at 5 hours after administration of 4 mg/kg dose perorally; type: functional; conditions: route oral
# Rattus norvegicus [48] = assay: % decrease in heart 5-HT in anesthetized spontaneously hypertensive rats(SHR) at 5 hours after administration of 75 mg/kg dose perorally; type: functional; conditions: route oral
# Rattus norvegicus [49] = assay: Systolic blood pressure (SBP) in anesthetized spontaneously hypertensive rats(SHR) at 7.5 hours after administration of 75 mg/kg dose perorally; NS is not statistically significant.
# Rattus norvegicus [50] = assay: % decrease in hypothalamus DA in anesthetized spontaneously hypertensive rats(SHR) at 5 hours after administration of 75 mg/kg dose perorally; *value significantly different was control.; conditions: route oral
structure (smiles),measurement,setting,value
CC(C)NCC(O)COc1ccc2c(=O)cc(-c3ccc(N)cc3)oc2c1 (stereo unspecified),Decrease in Systolic blood pressure,Rattus norvegicus [1],Not significant
same,Systolic blood pressure,Rattus norvegicus [2],206
O=c1cc(-c2ccccc2)oc2cc(OCC(O)CNC3CCCCC3)ccc12 (stereo unspecified),Systolic blood pressure,Rattus norvegicus [3],201
same,Ki,Adrenergic receptor beta [4],5500 nM
same,Decrease in Systolic blood pressure,Rattus norvegicus [5],20%
CC(C)NCC(O)COc1ccc2c(=O)c(-c3ccccc3)coc2c1 (stereo unspecified),% decrease SBP,Rattus norvegicus [6],34%
same,Decrease,Rattus norvegicus [7],100%
same,Decrease,Rattus norvegicus [8],37%
same,Decrease,Rattus norvegicus [9],100%
COc1c(-c2ccccc2)oc2cc(OCC(O)CNC(C)C)ccc2c1=O (stereo unspecified),% decrease SBP,Rattus norvegicus [6],16%
same,Decrease in Systolic blood pressure,Rattus norvegicus [10],Not significant
same,Decrease,Rattus norvegicus [11],70%
same,Decrease,Rattus norvegicus [12],29%
same,Decrease,Rattus norvegicus [13],55%
same,Decrease,Rattus norvegicus [14],28%
same,Decrease,Rattus norvegicus [15],7%
same,Decrease,Rattus norvegicus [16],29%
same,Decrease,Rattus norvegicus [17],16%
same,% decrease hypothalamus DA,Rattus norvegicus [18],37%
same,Decrease,Rattus norvegicus [19],26%
same,Decrease,Rattus norvegicus [20],12%
same,Decrease,Rattus norvegicus [21],61%
same,Decrease,Rattus norvegicus [22],37%
CCCNCC(O)COc1ccc2c(=O)cc(-c3ccccc3)oc2c1 (stereo unspecified) [FLAVODILOL],Decrease,Rattus norvegicus [23],11%
same,Decrease,Rattus norvegicus [24],4%
same,Decrease in heart norepinephrine,Rattus norvegicus [25],38%
same,% decrease SBP,Rattus norvegicus [26],6%
same,Decrease,Rattus norvegicus [27],49%
same,% decrease SBP,Rattus norvegicus [28],3%
same,Decrease in Systolic blood pressure,Rattus norvegicus [29],32%
same,Systolic blood pressure,Rattus norvegicus [30],203
same,Decrease,Rattus norvegicus [31],63%
same,Systolic blood pressure,Rattus norvegicus [32],199
same,Decrease in hypothalamus norepinephrine,Rattus norvegicus [33],2%
same,Decrease in heart norepinephrine,Rattus norvegicus [13],89%
same,Ki,Adrenergic receptor beta [34],4 nM
same,Decrease in hypothalamus norepinephrine,Rattus norvegicus [35],0%
same,% decrease hypothalamus DA,Rattus norvegicus [36],37%
same,Decrease in hypothalamus norepinephrine,Rattus norvegicus [17],15%
same,Systolic blood pressure,Rattus norvegicus [37],196
same,Decrease,Rattus norvegicus [19],38%
same,Decrease in heart norepinephrine,Rattus norvegicus [38],79%
same,Decrease,Rattus norvegicus [39],-6%
same,Decrease,Rattus norvegicus [40],61%
same,Decrease in hypothalamus norepinephrine,Rattus norvegicus [20],19%
same,Decrease in heart norepinephrine,Rattus norvegicus [21],94%
same,Decrease in heart norepinephrine,Rattus norvegicus [41],21%
same,Decrease,Rattus norvegicus [42],31%
same,% decrease SBP,Rattus norvegicus [43],31%
same,Decrease in hypothalamus norepinephrine,Rattus norvegicus [44],6%
same,% decrease SBP,Rattus norvegicus [45],7%
same,Decrease in Systolic blood pressure,Rattus norvegicus [5],27%
same,Decrease in Systolic blood pressure,Rattus norvegicus [46],15%
same,Decrease,Rattus norvegicus [47],-10%
CN(C)CC(O)COc1ccc2c(=O)cc(-c3ccccc3)oc2c1 (stereo unspecified),% decrease SBP,Rattus norvegicus [6],5%
same,Decrease,Rattus norvegicus [48],0%
same,Decrease in Systolic blood pressure,Rattus norvegicus [49],Not significant
same,Systolic blood pressure,Rattus norvegicus [30],207
same,Decrease,Rattus norvegicus [11],7%
same,Decrease,Rattus norvegicus [14],37%
same,% decrease hypothalamus DA,Rattus norvegicus [50],29%
same,Decrease,Rattus norvegicus [17],20%
same,% decrease hypothalamus DA,Rattus norvegicus [18],47%
same,Decrease,Rattus norvegicus [21],18%
same,% decrease SBP,Rattus norvegicus [43],0%
same,Decrease,Rattus norvegicus [22],0%
